pEC50: −log10 of the molar value. Like-named read-outs stand apart in the source and are kept apart here.
How the values were obtained:
[1] = target: hSTING(R232) (Homo sapiens, UniProt Q86WV6, H232R); assay: Luciferase reporter assay in HEK293T-hSTING-Luciferase cells, R232 (wild type) human STING; format: cell-based; conditions: 20 hr stimulation, read-out: R232 human activity (EC50 range)
In short: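 Clonal HEK293T cells stably expressing STING from a pUNO-1 plasmid plus an ISRE/ISG54-driven secreted luciferase reporter; 5×10^5 cells stimulated with compound for 20 hr. Supernatant luciferase read by luminescence, giving fold-induction over baseline and EC50.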

[2] = target: cynomolgus monkey STING protein (Macaca fascicularis, UniProt A0A2R3XZA6); assay: Luciferase reporter assay, cynomolgus monkey STING overexpressed in HEK293T cells; format: cell-based
Procedure: 5×10^5 clonally selected HEK293T-hSTING-Luciferase cells were seeded in 384-well plates in growth medium and stimulated with novel compounds. After 20 hr of stimulation supernatant were removed and secretary reporter gene activity were measured using the Quanti-Luc detection system (Invivogen) on a Spectramax i3X luminometer.
In the tables below, EC50 value ranges for exemplary compounds are given.
Selected compounds were further tested against cynomolgus monkey STING protein overexpressed in HEK293T cells.

[3] = cynomolgus monkey STING overexpressed in HEK293T cells, read-out: Cynomolgus monkey STING activity (EC50 range)

Chain of cynomolgus monkey STING protein (A0A2R3XZA6 entry or part of it): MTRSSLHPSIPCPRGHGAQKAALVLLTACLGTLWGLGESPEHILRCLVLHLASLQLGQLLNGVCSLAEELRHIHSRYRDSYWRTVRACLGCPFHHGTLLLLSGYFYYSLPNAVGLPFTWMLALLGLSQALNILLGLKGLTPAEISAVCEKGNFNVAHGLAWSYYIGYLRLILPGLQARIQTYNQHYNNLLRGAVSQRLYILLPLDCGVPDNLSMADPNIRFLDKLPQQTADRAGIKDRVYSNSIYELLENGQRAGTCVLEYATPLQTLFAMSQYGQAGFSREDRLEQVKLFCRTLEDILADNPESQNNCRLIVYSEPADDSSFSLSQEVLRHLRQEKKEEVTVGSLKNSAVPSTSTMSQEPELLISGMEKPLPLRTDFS
Chain of hSTING(R232) (Q86WV6 whole entry H232R): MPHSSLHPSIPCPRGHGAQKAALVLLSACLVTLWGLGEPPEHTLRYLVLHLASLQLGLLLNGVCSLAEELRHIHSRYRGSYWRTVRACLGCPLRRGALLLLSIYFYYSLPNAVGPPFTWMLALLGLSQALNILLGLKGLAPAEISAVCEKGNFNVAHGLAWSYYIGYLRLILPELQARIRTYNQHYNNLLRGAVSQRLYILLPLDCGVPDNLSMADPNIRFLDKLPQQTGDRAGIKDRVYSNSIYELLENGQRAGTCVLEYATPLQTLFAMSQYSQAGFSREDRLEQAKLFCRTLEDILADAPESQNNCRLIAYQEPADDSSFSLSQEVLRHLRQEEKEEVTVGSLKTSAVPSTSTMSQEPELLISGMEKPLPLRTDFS

| Compound | pEC50 [1] | pEC50 [2, 3] | pEC50 [2] |
| --- | --- | --- | --- |
| COc1cc(F)c(CN2C(=O)N(C)[C@@H](C)c3ccc(C(=O)NCc4c(F)cc(F)cc4F)cc32)c(F)c1 [Example 79, (S)-1-(2,6-Difluoro-4-methoxybenzyl)-3,4-dimethyl-2-oxo-N-(2,4,6-trifluorobenzyl)-1,2,3,4-tetrahydroquinazoline-7-carboxamide] | > 6.00 | > 6.00 |  |
| C[C@H]1c2ccc(C(=O)NCc3c(F)cc(F)cc3F)cc2N(Cc2c(F)cc(OCCCOP(=O)(O)O)cc2F)C(=O)N1C [Example 82, (S)-3-(4-((3,4-dimethyl-2-oxo-7-((2,4,6-trifluorobenzyl)carbamoyl)-3,4-dihydroquinazolin-1(2H)-yl)methyl)-3,5-difluorophenoxy)propyl dihydrogen phosphate] | > 6.00 | > 6.00 |  |
| C[C@H]1c2ccc(C(=O)NCc3c(F)cc(F)cc3F)cc2N(Cc2c(F)cc(OCOP(=O)(O)O)cc2F)C(=O)N1C [Example 83, (S)-(4-((3,4-dimethyl-2-oxo-7-((2,4,6-trifluorobenzyl)carbamoyl)-3,4-dihydroquinazolin-1(2H)-yl)methyl)-3,5-difluorophenoxy)methyl dihydrogen phosphate] | > 6.00 | > 6.00 |  |
| C[C@H]1c2ccc(C(=O)NCc3c(F)cc(F)cc3F)cc2N(Cc2c(F)cc(OP(=O)(O)O)cc2F)C(=O)N1C [Example 84, (S)-4-((3,4-Dimethyl-2-oxo-7-((2,4,6-trifluorobenzyl)carbamoyl)-3,4-dihydroquinazolin-1(2H)-yl)methyl)-3,5-difluorophenyl dihydrogen phosphate] | > 6.00 | > 6.00 |  |
| C[C@H]1c2ccc(C(=O)NCc3c(F)cc(F)cc3F)cc2N(Cc2c(F)cc(OC(=O)N(C)CCC(=O)OCc3ccccc3)cc2F)C(=O)N1C [Example 86, (S)-Benzyl-3-(((4-((3,4-dimethyl-2-oxo-7-((2,4,6-trifluorobenzyl)carbamoyl)-3,4-dihydroquinazolin-1(2H)-yl)methyl)-3,5-difluorophenoxy)carbonyl)(methyl)amino)propanoate] | 5.00 to 6.00 |  | 5.00 to 6.00 |
| C[C@H]1c2ccc(C(=O)NCc3c(F)cc(F)cc3F)cc2N(Cc2c(F)ccc(OP(=O)(O)O)c2Cl)C(=O)N1C [Example 89, (S)-2-Chloro-3-((3,4-dimethyl-2-oxo-7-((2,4,6-trifluorobenzyl)carbamoyl)-3,4-dihydroquinazolin-1(2H)-yl)methyl-4-fluorophenyldihydrogen phosphate] | > 6.00 | > 6.00 |  |
| C[C@H]1c2ccc(C(=O)NCc3c(F)cc(OP(=O)(O)O)cc3F)cc2N(Cc2c(F)cccc2Cl)C(=O)N1C [Example 101, (S)-4-((1-(2-chloro-6-fluorobenzyl)-3,4-dimethyl-2-oxo-1,2,3,4-tetrahydroqinazoline-7-carboxamido)methyl)-3,5-difluorophenyl dihydrogen phosphate] | 5.00 to 6.00 | 5.00 to 6.00 |  |
| C[C@H]1c2ccc(C(=O)NCc3c(F)cc(F)cc3F)cc2N(Cc2c(F)ccc(OP(=O)(O)O)c2F)C(=O)N1C [Example 102, (S)-3-((3,4-dimethyl-2-oxo-7-((2,4,6-trifluorobenzyl)carbamoyl)-3,4-dihydroquinazolin-1(2H)-yl)methyl)-2,4-difluorophenyl dihydrogen phosphate] | > 6.00 | > 6.00 |  |
| C[C@H]1c2ccc(C(=O)NCc3c(F)cc(F)cc3F)cc2N(Cc2c(F)cc(F)cc2OP(=O)(O)O)C(=O)N1C [Example 105, (S)-2-((3,4-dimethyl-2-oxo-7-((2,4,6-trifluorobenzyl)carbamoyl)-3,4-dihydroquinazolin-1(2H)-yl)methyl)-3,5-difluorophenyl dihydrogen phosphate] | > 6.00 | > 6.00 |  |

More lines, main results first:

| pEC50 [1] | pEC50 [2, 3] | Compound | pEC50 [2] |
| --- | --- | --- | --- |
| > 6.00 | > 6.00 | C[C@H]1c2ccc(C(=O)NCc3c(F)cc(F)cc3F)cc2N(Cc2c(F)ccc(OCOP(=O)(O)O)c2Cl)C(=O)N1C [Example 90, (S)-(2-Chloro-3-((3,4-dimethyl-2-oxo-7-((2,4,6-trifluorobenzyl)carbamoyl)-3,4-dihydroquinazolin-1(2H)-yl)methyl)-4-fluorophenoxy)methyl dihydrogen phosphate] |  |
| > 6.00 | < 5.00 | C[C@H]1c2ccc(C(=O)NCc3c(F)cc(F)cc3F)cc2N(Cc2c(F)cc(F)cc2OCCCOP(=O)(O)O)C(=O)N1C [Example 94, (S)-3-(2-((3,4-dimethyl-2-oxo-7-((2,4,6-trifluorobenzyl)carbamoyl)-3,4-dihydroquinazolin-1(2H)-yl)methyl)-3,5-difluorophenoxy)propyl dihydrogen phosphate] |  |
| > 6.00 | < 5.00 | C[C@H]1c2ccc(C(=O)NCc3c(F)cc(F)cc3F)cc2N(Cc2c(F)ccc(OCCOP(=O)(O)O)c2Cl)C(=O)N1C [Example 95, (S)-2-(2-chloro-3-((3,4-dimethyl-2-oxo-7-((2,4,6-trifluorobenzyl)carbamoyl)-3,4-dihydroquinazolin-1(2H)-yl)methyl)-4-fluorophenoxy)ethyl dihydrogen phosphate] |  |
| > 6.00 | < 5.00 | C[C@H]1c2ccc(C(=O)NCc3c(F)cc(F)cc3F)cc2N(Cc2c(F)ccc(OCCCOP(=O)(O)O)c2Cl)C(=O)N1C [Example 96, (S)-3-(2-chloro-3-((3,4-dimethyl-2-oxo-7-((2,4,6-trifluorobenzyl)carbamoyl)-3,4-dihydroquinazolin-1(2H)-yl)methyl)-4-fluorophenoxy)propyl dihydrogen phosphate] |  |
| > 6.00 | > 6.00 | C[C@H]1c2ccc(C(=O)NCc3c(F)cc(F)cc3F)cc2N(Cc2c(F)cc(OCCOP(=O)(O)O)cc2F)C(=O)N1C [Example 97, (S)-2-(4-((3,4-dimethyl-2-oxo-7-((2,4,6-trifluorobenzyl)carbamoyl)-3,4-dihydroquinazolin-1(2H)-yl)methyl)-3,5-difluorophenoxy)ethyl dihydrogen phosphate] |  |
| > 6.00 | > 6.00 | C[C@H]1c2ccc(C(=O)NCc3c(F)cc(F)cc3F)cc2N(Cc2c(F)ccc(OCCOP(=O)(O)O)c2F)C(=O)N1C [Example 103, (S)-2-(3-((3,4-dimethyl-2-oxo-7-((2,4,6-trifluorobenzyl)carbamoyl)-3,4-dihydroquinazolin-1(2H)-yl)methyl)-2,4-difluorophenoxy)ethyl dihydrogen phosphate] |  |
| > 6.00 | > 6.00 | CC(=O)Nc1ccc(COC(=O)Oc2ccc(F)c(CN3C(=O)N(C)[C@@H](C)c4ccc(C(=O)NCc5c(F)cc(F)cc5F)cc43)c2Cl)cc1 [Example 139, (S)-4-Acetamidobenzyl-(2-chloro-3-((3,4-dimethyl-2-oxo-7-((2,4,6-trifluorobenzyl)carbamoyl)-3,4-dihydroquinazolin-1(2H)-yl)methyl)-4-fluorophenyl) carbonate] |  |
| > 6.00 | > 6.00 | C=CCOc1cc(F)c(CN2C(=O)N(C)[C@@H](C)c3ccc(C(=O)NCc4c(F)cc(F)cc4F)cc32)c(F)c1 [Example 144] |  |
| > 6.00 | > 6.00 | C[C@H]1c2ccc(C(=O)NCc3c(F)cc(F)cc3F)cc2N(Cc2c(F)cc(OCC(O)CO)cc2F)C(=O)N1C (stereo partly drawn) [Example 145, (4S)-1-(4-(2,3-Dihydroxypropoxy)-2,6-difluorobenzyl)-3,4-dimethyl-2-oxo-N-(2,4,6-trifluorobenzyl)-1,2,3,4-tetrahydroquinazoline-7-carboxamide] |  |

From patent US11571423B2, “Small molecule modulators of human sting” (Curadev Pharma Limited, priority 2017, dated 2023)
